# From publication PMC10325900, “A conserved motif in the disordered linker of human MLH1 is vital for DNA mismatch repair and its function is diminished by a cancer family mutation” (Nucleic Acids Research, 2023)
# Changes are numbered by the printed parent chain.
# T1: MLH1-ΔConMot-PMS2 (Homo sapiens, UniProt P40692+P54278, DEL377-396)
# T1 construct: The pcDNA3 expression vector containing the entire open reading frame of human MLH1; expressed in transfected cells; host or cells: HEK293T (MLH1-deficient), transiently co-transfected
# T1 sequence (P40692 with tags, fused parts or gaps DEL377-396): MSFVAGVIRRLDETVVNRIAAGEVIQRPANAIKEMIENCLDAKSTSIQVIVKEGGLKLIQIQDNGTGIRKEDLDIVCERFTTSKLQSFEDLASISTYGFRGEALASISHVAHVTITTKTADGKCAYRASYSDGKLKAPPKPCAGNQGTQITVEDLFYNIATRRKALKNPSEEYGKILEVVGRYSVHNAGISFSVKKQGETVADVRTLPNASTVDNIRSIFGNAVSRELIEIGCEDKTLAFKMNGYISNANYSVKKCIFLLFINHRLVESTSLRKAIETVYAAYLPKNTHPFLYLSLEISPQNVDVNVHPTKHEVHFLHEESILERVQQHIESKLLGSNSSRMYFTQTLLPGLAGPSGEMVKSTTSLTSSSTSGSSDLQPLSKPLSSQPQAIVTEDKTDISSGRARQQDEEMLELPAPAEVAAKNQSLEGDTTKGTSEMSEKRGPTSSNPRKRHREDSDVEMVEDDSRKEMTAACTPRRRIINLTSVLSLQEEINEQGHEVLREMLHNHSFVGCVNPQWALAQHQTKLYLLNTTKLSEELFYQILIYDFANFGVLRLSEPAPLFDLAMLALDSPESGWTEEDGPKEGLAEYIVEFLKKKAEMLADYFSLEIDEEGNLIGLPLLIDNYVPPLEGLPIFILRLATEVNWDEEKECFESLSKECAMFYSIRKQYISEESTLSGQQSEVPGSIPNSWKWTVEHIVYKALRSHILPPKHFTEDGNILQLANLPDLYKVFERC
# T1 sequence (P54278 1-862 partner): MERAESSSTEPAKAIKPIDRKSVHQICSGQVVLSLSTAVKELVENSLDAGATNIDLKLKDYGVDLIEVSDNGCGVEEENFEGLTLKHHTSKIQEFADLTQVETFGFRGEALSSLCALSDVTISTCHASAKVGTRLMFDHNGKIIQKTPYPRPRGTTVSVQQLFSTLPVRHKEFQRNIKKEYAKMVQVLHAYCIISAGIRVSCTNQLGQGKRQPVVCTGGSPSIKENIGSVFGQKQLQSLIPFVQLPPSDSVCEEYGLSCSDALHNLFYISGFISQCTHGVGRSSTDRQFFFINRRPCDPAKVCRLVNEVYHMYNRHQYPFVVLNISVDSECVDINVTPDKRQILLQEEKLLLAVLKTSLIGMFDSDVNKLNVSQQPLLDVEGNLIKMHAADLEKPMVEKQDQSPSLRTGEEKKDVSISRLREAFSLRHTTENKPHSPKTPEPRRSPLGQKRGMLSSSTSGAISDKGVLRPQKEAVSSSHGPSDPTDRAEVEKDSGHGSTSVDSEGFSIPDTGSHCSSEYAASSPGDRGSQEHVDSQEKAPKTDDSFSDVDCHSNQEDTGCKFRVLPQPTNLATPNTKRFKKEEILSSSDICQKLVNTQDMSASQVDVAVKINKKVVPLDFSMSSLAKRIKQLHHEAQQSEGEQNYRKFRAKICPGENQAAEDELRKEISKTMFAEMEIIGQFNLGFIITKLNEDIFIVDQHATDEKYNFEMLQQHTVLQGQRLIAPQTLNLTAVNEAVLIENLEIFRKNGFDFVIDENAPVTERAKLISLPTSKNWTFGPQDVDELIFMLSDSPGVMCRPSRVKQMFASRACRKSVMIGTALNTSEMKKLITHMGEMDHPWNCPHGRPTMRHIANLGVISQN
# B1: p.Tyr379Cys: human MLH1 missense variant, c.1136A>G (protein, UniProt P40692 2-756, looked up, variant Y379C)
# DNA mismatch repair protein …: SFVAGVIRRLDETVVNRIAAGEVIQRPANAIKEMIENCLDAKSTSIQVIVKEGGLKLIQIQDNGTGIRKEDLDIVCERFTTSKLQSFEDLASISTYGFRGEALASISHVAHVTITTKTADGKCAYRASYSDGKLKAPPKPCAGNQGTQITVEDLFYNIATRRKALKNPSEEYGKILEVVGRYSVHNAGISFSVKKQGETVADVRTLPNASTVDNIRSIFGNAVSRELIEIGCEDKTLAFKMNGYISNANYSVKKCIFLLFINHRLVESTSLRKAIETVYAAYLPKNTHPFLYLSLEISPQNVDVNVHPTKHEVHFLHEESILERVQQHIESKLLGSNSSRMYFTQTLLPGLAGPSGEMVKSTTSLTSSSTSGSSDKVCAHQMVRTDSREQKLDAFLQPLSKPLSSQPQAIVTEDKTDISSGRARQQDEEMLELPAPAEVAAKNQSLEGDTTKGTSEMSEKRGPTSSNPRKRHREDSDVEMVEDDSRKEMTAACTPRRRIINLTSVLSLQEEINEQGHEVLREMLHNHSFVGCVNPQWALAQHQTKLYLLNTTKLSEELFYQILIYDFANFGVLRLSEPAPLFDLAMLALDSPESGWTEEDGPKEGLAEYIVEFLKKKAEMLADYFSLEIDEEGNLIGLPLLIDNYVPPLEGLPIFILRLATEVNWDEEKECFESLSKECAMFYSIRKQYISEESTLSGQQSEVPGSIPNSWKWTVEHIVYKALRSHILPPKHFTEDGNILQLANLPDLYKVFERC
# B2: p.Val384Asp: human MLH1 missense variant, c.1151T>A (protein, UniProt P40692 2-756, looked up, variant V384D)
# DNA mismatch repair protein …: B1 DNA mismatch repair protein … with C378Y, V383D
# B3: ConMot-32 peptide (32-mer peptide containing the sequence of the MLH1-ConMot) (peptide)
# peptide: SGSSDKVYAHQMVRTDSREQKLDAFLQPLSK
# Tests used:
# MLH1-ΔConMot-PMS2 = target: T1, MLH1-ΔConMot-PMS2; test: DNA mismatch repair (MMR) complementation assay with peptide, MLH1-ΔConMot variant; assay type: biochemical
# Experimental: (§1) Mismatch repair activity was assessed as described in detail before ([79],[81]) (Supplementary Figure S3). […] Mismatched DNA plasmid substrate (Supplementary Figure S3) prepared according to previously published procedures ([81–83]) was added, and reactions in a final volume of 25 μl were incubated at 37°C for 15 min. Repair efficiency was scored by purifying the mismatched DNA plasmid from the reaction and assessing the fraction of homoduplex sequence by restriction digestion of the mismatched site using EcoRV. The substrate was additionally linearized with AseI.
# For complementation assays with peptide, the indicated peptide(s) were used at stock concentrations of 50 or 500 μM in HEPES–KOH 20 mM pH 7.6 and supplemented to the MMR reactions.
# Figure 4. Reaction of DNA mismatch repair to addition of ConMot peptide. (A) Nuclear extract of MLH1-proficient HEK293 cells was used for performing the DNA mismatch repair reaction. Four reactions were undertaken, with two reactions supplemented with either 7.5 μM or 75 μM ConMot-32 peptide. A negative control reaction was performed by omitting the 37°C repair incubation. (B) MMR reactions were performed with nuclear extract of MLH1-deficient HEK293T cells supplemented with extract of cells transfected either with wildtype MLH1-PMS2 (positive control) or with MLH1-ΔConMot-PMS2. To these MMR reactions, different peptides were added at a concentration of 75 μM: A ConMot-32 peptide (A), a Scramble-32 peptide (B) in which the conserved ConMot sequence is scrambled, and a short ConMot-20 peptide (C) that only contains the twenty highly conserved ConMot residues. The peptide sequences are given below the gel image. (C) The concentration-dependence of the MMR-activating effect of the ConMot-32 peptide observed in (B) was measured over a concentration range from 1–75 μM. (D) Theoretical binding curves of a ligand (peptide) to a protein were calculated for dissociation constants (KD) of 1, 5 and 10 μM for a protein concentration as present for MLH1-PMS2 in the MMR assay reactions (see also Supplementary Figure S3). Into this diagram, the average MMR activities (and standard deviations) measured in >3 of the experiment exemplarily shown in C were introduced as bars at ConMot-32 peptide concentrations of 1, 2.5, 7.5, 18 and 75 μM.
# Second, we used extract of the repair-deficient cell line HEK293T supplemented with either wildtype MutLα (MLH1-PMS2) or the ΔConMot deletion variant, corresponding to experiment shown in Figure 2B. In this experiment, we again added ConMot peptide.
# We investigated the effect of the ConMot peptide more closely by titrating the required peptide concentrations for activation. We determined that the mismatch repair reactions performed in this study contained approximately 280 fmol MLH1 (Supplementary Figure S4A and B), which is in good agreement with previous quantifications of MLH1-PMS2 in cells and extracts ([96]). […] Dissociation constants (KD) for peptides to proteins are typically in the range of 1–10 μM ([97]). We compared the measured concentration-dependent MMR activities with theoretical binding curves of (peptide) ligands to (protein) substrates for KD values of 1, 5 and 10 μM (Supplementary Figure S4C) at the determined MLH1 concentration. […] It is therefore plausible that a binding reaction of the ConMot peptide (to a protein) underlies the restauration of MMR activity. […]
# Deletion C on M ot (∆Co nMot) c.1129_1188del CTGCAGCCTCTGAGCAAA […]
# Del et i on comp are (∆Compare) c.1221_1280del […] ACTGGACAGGGGTTTGCT
# Scramble c.1147_1160delinsGAC ggtacgtTCCCGGGAACAGAAGCT atagtgtcCTGGTGGGCATAGACCT
# p.(M383_D387delinsDTMVR) ACTATGGTAC G T TATC
# ConMot hy bri d gcataTCTGCAGCCTCTGAGCAA acagg[…]
# Supplementary Table 1: Analyzed variant inf ormation.
# Variant descriptions confer to HGVS format and refer to the MLH1 reference cDNA (NM_000249.4) […]
# [1] = system: G-T mismatch in a test plasmid; test: MMR activity of MLH1 variants (MLH1-PMS2 expressed in HEK293T cells); assay type: biochemical, human; settings: variant MLH1 + PMS2 transfected in HEK293T, relative to wildtype; 37°C, 15 min; >3 independent experiments
# Experimental: Sequence variants of the MLH1 expression vector were generated using the Q5 site directed mutagenesis system (New England Biolabs, Ipswich, MA, USA) with the appropriate primers (Supplementary Table S1).
# as §1
# Figure 2. Expression and DNA mismatch repair activity of human and artificial ConMot variants. […] As a negative control, one sample was only transfected with an EGFP. After 48 h, native whole cell protein extracts were prepared. Expression was assessed by SDS-PAGE and western blotting. (A) Representative western blot of MLH1 wildtype and variant expressions. Average expression levels of MLH1 of > 5 independent transfections were determined and are given in the bar diagram below. (B) The extracts of the transfections were used to assess the DNA mismatch repair activities of the variant MLH1 proteins in comparison with wildtype (WT) MLH1-PMS2 as detailed in Materials and Methods and as shown in Supplementary Figure S3. The EGFP-transfected extract sample served as negative control. Representative agarose gels are shown in the top panel.
# Figure 3. Analysis of the relevance of ConMot core and surrounding sequences. MLH1 proteins containing either the wildtype human ConMot motif sequence or variants were directly compared concerning expression and MMR activity. (A) Comparison of the ConMot variants used: the core-scramble variant sequence, the full-scramble variant sequence and an animal-plant hybrid that contains the ConMot consensus sequence of plants as it exists, for example, in walnut and mungo bean (Vigna radiata and Juglans regia). (B) Comparison of conservation in the animal versus plant ConMot in WebLogo representation. Specific differences in conservation within the sequences flanking the core MVRTD sequence are marked by red arrows above the animal sequence. (C) Western blot of the expression of the different MLH1-ConMot wildtype (WT) and the variants shown in A after transfection in HEK293T cells; negative control: transfection of EGFP. (D) MMR activities were assessed in direct comparison to negative control and wildtype human MLH1 as in Figure 2B. Average activities and standard deviations were calculated from >3 independent experiments.
# Figure 6. The MMR defect of p.Tyr750Arg is partly compensated by p.Arg385Tyr. […] (B) The side chain of the highly conserved Arg385 is predicted to be in proximity to the side chain of the highly conserved Tyr750 residue. (C) MLH1-PMS2-deficient HEK293T cells were co-transfected with the indicated single- and double variants of MLH1 and PMS2. Protein extracts were prepared, separated by SDS-PAGE, blotted and probed for MLH1 protein expression. (D) MMR assays were performed to test DNA mismatch repair activity as detailed in Materials and Methods. One representative agarose gel is shown, and average repair values in comparison to wildtype and standard deviations of >3 independent experiments are shown in a bar diagram. A two-sided t-test was performed for testing significance of the difference in repair activity of p.Tyr750Arg in comparison to the double variant p.Arg385Tyr + Tyr750Arg.
# Mismatched DNA plasmid substrate and principle of MMR assay.
# The MMR assay is performed using as substrate a modified 2 kbp derivative of the pUC vector (pUC
# CPDC Bb v) originally generated by Wang and Hays and further modified by Plotz et al. and Gonzáles-
# Acosta et al . […]
# [2] = target: MLH1-ΔConMot-PMS2 (MutLα heterodimer with the ConMot deletion variant of MLH1) (human) (UniProt P40692)
molecule,measurement,setting,value
KVYAHQMVRTDSREQKLDAF [ConMot-20],effect of 20mer-ConMot on MMR restauration by the 32mer-ConMot,"MLH1-ΔConMot-PMS2; Figure 4B, peptides at 75 μM, combined peptides, 37°C, 15 min",did not affect MMR restauration
same,effect of peptide on MMR (summary in Supplementary Table 2),"MLH1-ΔConMot-PMS2; molar ratio 0-860-2300-8600 to hMLH1-PMS2, Tris-HCl pH 7.5, 5 mM Mg2+, 1.5 mM ATP",inactive
SGSSDMVQFEKLKDRRSQDATYVAHLQPLSKP [Scramble-32],restoration of DNA mismatch repair activity of the ΔConMot variant,"MLH1-ΔConMot-PMS2; peptide 75 μM (Figure 4B), HEK293T nuclear extract 50 μg + 5 μg transfected extract, 25 μl, 37°C, 15 min, EcoRV/AseI digestion, agarose gel",did not restore MMR activity
B1,DNA mismatch repair activity of MLH1 variant (in words),[1],did not find a catalytic defect
B2,DNA mismatch repair activity of MLH1 variant (in words),[1],no detectable impairment of MMR
B3,KD read by comparing the concentration-dependent MMR restoration with theoretical binding curves of a peptide ligand to a protein at the determined MLH1 concentration,[2],7.5 µM
